# How the values were obtained:
# [1] = target: T1, human recombinant ETB receptor (Homo sapiens, UniProt P24530); assay: Inhibition of [125I]ET-1 binding to membranes from CHO cells carrying human ETB receptors
# T1 construct: expressed in transfected cells; host or cells: CHO cells (microsomal membranes)
# T1 sequence (P24530 27-442): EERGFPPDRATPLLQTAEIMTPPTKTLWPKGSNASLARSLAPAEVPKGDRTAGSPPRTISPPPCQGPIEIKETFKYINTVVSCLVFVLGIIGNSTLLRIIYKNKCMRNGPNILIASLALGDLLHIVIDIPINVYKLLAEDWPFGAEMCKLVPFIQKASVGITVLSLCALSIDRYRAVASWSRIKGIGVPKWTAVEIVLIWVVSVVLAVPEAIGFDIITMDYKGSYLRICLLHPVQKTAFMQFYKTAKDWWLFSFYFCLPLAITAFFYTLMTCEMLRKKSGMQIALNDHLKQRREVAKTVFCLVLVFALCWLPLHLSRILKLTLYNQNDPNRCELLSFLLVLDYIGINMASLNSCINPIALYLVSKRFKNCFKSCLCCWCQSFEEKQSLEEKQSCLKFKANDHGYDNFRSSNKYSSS
# [2] = target: T2, human recombinant ETA receptor (Homo sapiens, UniProt P25101); assay: Inhibition of [125I]ET-1 binding to membranes from CHO cells carrying human ETA receptors
# T2 construct: expressed in transfected cells; host or cells: CHO cells (microsomal membranes)
# T2 sequence (P25101 21-427): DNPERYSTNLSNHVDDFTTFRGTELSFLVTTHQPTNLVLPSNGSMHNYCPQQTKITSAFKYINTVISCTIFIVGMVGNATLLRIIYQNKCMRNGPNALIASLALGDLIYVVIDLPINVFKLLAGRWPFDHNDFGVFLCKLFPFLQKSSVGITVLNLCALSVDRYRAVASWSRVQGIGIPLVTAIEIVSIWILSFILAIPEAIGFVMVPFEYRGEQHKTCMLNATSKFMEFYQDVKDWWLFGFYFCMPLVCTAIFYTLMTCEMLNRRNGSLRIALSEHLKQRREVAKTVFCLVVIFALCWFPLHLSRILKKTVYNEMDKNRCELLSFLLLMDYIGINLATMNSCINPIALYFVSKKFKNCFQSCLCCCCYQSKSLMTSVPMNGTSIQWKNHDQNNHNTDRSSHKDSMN
IC50 [1] [nM],IC50 [2] [nM],SMILES
> 10000,59,"Cc1ccc(NS(=O)(=O)Nc2ncnc(OCCOc3ncc(Br)cn3)c2-c2ccc(C)cc2)cc1 [Example 12, 4-methyl-phenyl sulfamic acid-[6-[2-(5-bromo-pyrimidin-2-yloxy)-ethoxy]-5-(p-tolyl)-4-pyrimidinyl]-amide]"
> 1000,10,COc1ccccc1Oc1c(NS(=O)(=O)NCc2cccs2)nc(-c2ccncc2)nc1OCCOc1ncc(Br)cn1 [Example 80]
2160,18.5,COc1cnc(OCCOc2ncnc(NS(=O)(=O)NCc3ccccc3)c2-c2ccc(Cl)cc2)nc1 [Example 15]
164,1.8,COc1ccccc1Oc1c(NS(=O)(=O)NCc2ccccc2)nc(-c2ccncc2)nc1OCCOc1ncc(SC)cn1 [Example 74]
335,1.24,COc1cnc(OCCOc2ncnc(NS(=O)(=O)NCc3ccccc3)c2-c2ccc(Br)cc2)nc1 [Example 101]
87,7.3,COc1cnc(OCCOc2nc(-c3ncccn3)nc(NS(=O)(=O)NCC3CC3)c2Oc2ccccc2OC)nc1 [Example 127]
408,1.2,CSc1cnc(OCCOc2ncnc(NS(=O)(=O)NCc3ccc4c(c3)OCO4)c2-c2ccc(C)cc2)nc1 [Example 147]
290,11,COc1cnc(OCCOc2nc(-c3ncccn3)nc(NS(=O)(=O)N(C)Cc3ccccc3)c2Oc2ccccc2OC)nc1 [Example 188]
61,11,COc1cccc(CNS(=O)(=O)Nc2nc(-c3ncccn3)nc(OCCOc3ncccn3)c2Oc2ccccc2OC)c1 [Example 171]
722,290,"COc1ccc(Cl)c(Oc2c(NS(=O)(=O)NCc3ccccc3)ncnc2OCCO)c1 [Example 211, Benzylsulfamic acid [5-(2-chloro-5-methoxy-phenoxy)-6-(2-hydroxy-ethoxy)-pyrimidin-4-yl]-amide]"
22,2.5,COc1ccccc1CNS(=O)(=O)Nc1nc(-c2ncccn2)nc(OCCOC(=O)Nc2ccccc2)c1Oc1ccccc1OC [Example 176]
3,1,COc1ccc(CNS(=O)(=O)Nc2nc(-c3ncccn3)nc(OCCOc3ncc(Br)cn3)c2Oc2ccccc2OC)cc1OC [Example 166]
574,37,COc1ccccc1Oc1c(NS(=O)(=O)NCc2ccccn2)nc(C2CC2)nc1OCCOc1ncc(Br)cn1 [Example 84]
> 10000,3630,"COc1ccccc1Oc1c(NS(=O)(=O)Nc2ccccn2)nc(-c2ccncc2)nc1OC [Example 9, pyridine-2-sulfamic acid-[6-methoxy-5-(o-methoxyphenoxy)-2-(4-pyridyl)-4-pyrimidinyl]-amide]"
16,3,COc1cccc(CNS(=O)(=O)Nc2nc(-c3ncccn3)nc(OCCOC(=O)Nc3ccccc3)c2Oc2ccccc2OC)c1 [Example 172]
7.5,0.87,COc1ccc(CNS(=O)(=O)Nc2nc(-c3ncccn3)nc(OCCOC(=O)Nc3ccccn3)c2Oc2ccccc2OC)cc1 [Example 50]
3270,23,Cc1ccc(-c2c(NS(=O)(=O)NCc3ccccc3)nc(-c3ccncc3)nc2OCCOC(=O)Nc2ccccn2)cc1 [Example 34]
> 1000,8.3,O=S(=O)(Nc1ncnc(OCCOc2ncc(Br)cn2)c1-c1ccc(Cl)cc1)NC1CC1 [Example 114]
93,3.7,COc1ccccc1CNS(=O)(=O)Nc1nc(-c2ncccn2)nc(OCCOc2ncc(Br)cn2)c1Oc1ccccc1OC [Example 174]
80,10,COc1ccccc1Oc1c(NS(=O)(=O)NCc2ccccn2)nc(-c2ccncc2)nc1OCCOc1ncc(SC)cn1 [Example 158]
> 1000,1.64,Cc1ccc(-c2c(NS(=O)(=O)NCc3ccc4c(c3)OCO4)ncnc2OCCOc2ncc(Br)cn2)cc1 [Example 145]
173,5.8,COc1ccccc1Oc1c(NS(=O)(=O)NCc2ccccn2)nc(-c2ncccn2)nc1OCCOc1ncc(SC)cn1 [Example 155]
> 1000,2.2,CCNS(=O)(=O)Nc1ncnc(OCCOc2ncc(Br)cn2)c1-c1ccc(Cl)cc1 [Example 115]

IC50 [1] [nM],IC50 [2] [nM],SMILES
7240,286,"COc1ccccc1Oc1c(NS(=O)(=O)Nc2ccc(C(C)C)cc2)nc(-c2ccncc2)nc1OCCOc1ccc(C(F)(F)F)cn1 [Example 6, 4-i-propyl-phenyl sulfamic acid-[6-[2-(5-trifluoromethyl-pyridin-2-yloxy)-ethoxy]-5-(o-methoxy-phenoxy)-2-(4-pyridyl)-pyrimidin-4-yl]-amide]"
42,1.7,COc1cccc(CNS(=O)(=O)Nc2nc(-c3ncccn3)nc(OCCOc3ncc(Br)cn3)c2Oc2ccccc2OC)c1 [Example 170]
274,3.6,COc1ccccc1Oc1c(NS(=O)(=O)NCc2cccs2)nc(-c2ccncc2)nc1OCCOC(=O)Nc1ccccn1 [Example 81]
3220,11,C#CCOc1nc(-c2ccncc2)nc(NS(=O)(=O)NCc2ccc(OC)cc2)c1Oc1ccccc1OC [Example 160]
621,19,COc1cnc(OCCOc2nc(C3CC3)nc(NS(=O)(=O)NCc3ccccc3)c2Oc2ccccc2OC)nc1 [Example 89]
310,23,COc1cnc(OCCOc2nc(-c3ncccn3)nc(NS(=O)(=O)NC3CC3)c2Oc2ccccc2OC)nc1 [Example 200]
1.6,2.7,COc1ccc(CNS(=O)(=O)Nc2nc(-c3ncccn3)nc(OCCOC(=O)Nc3ccccc3)c2Oc2ccccc2OC)cc1OC [Example 168]
8450,45,Cc1cnc(OCCOc2ncnc(NS(=O)(=O)NCc3ccccc3)c2-c2ccc(Cl)cc2)nc1 [Example 16]
1590,3.6,COc1cnc(OCCOc2ncnc(NS(=O)(=O)NCc3ccco3)c2-c2ccc(Cl)cc2)nc1 [Example 23]
56,0.28,CSc1cnc(OCCOc2ncnc(NS(=O)(=O)NCC3CC3)c2-c2ccc(Br)cc2)nc1 [Example 108]
205,12,COc1ccccc1Oc1c(NS(=O)(=O)NC2CC2)nc(-c2ncccn2)nc1OCCOc1ncc(Br)cn1 [Example 199]
159,2.1,COc1ccccc1Oc1c(NS(=O)(=O)NCc2ccccc2)ncnc1OCCOC(=O)Nc1ccccn1 [Example 98]
954,42.2,COc1ccccc1Oc1c(NS(=O)(=O)NCc2ccccn2)nc(-c2ncccn2)nc1OCCOc1nccs1 [Example 157]
241,0.76,"COc1ccc(Cl)c(Oc2c(NS(=O)(=O)NCc3ccccc3)ncnc2OCCOc2ncc(S(C)(=O)=O)cn2)c1 [Example 214, Benzylsulfamic acid [5-(2-chloro-5-methoxy-phenoxy)-6-[2-(5-methanesulfonyl-pyrimidin-2-yloxy)-ethoxy]-pyrimidin-4-yl]-amide]"
25.4,0.82,COc1ccc(CNS(=O)(=O)Nc2nc(-c3ncccn3)nc(OCCOc3ncc(OC)cn3)c2Oc2ccccc2OC)cc1 [Example 49]
6.4,5.2,COc1ccc(CNS(=O)(=O)Nc2nc(-c3ncccn3)nc(OCCOc3ncccn3)c2Oc2ccccc2OC)cc1OC [Example 167]
409,18,COc1ccccc1Oc1c(NS(=O)(=O)NCc2ccccn2)nc(-c2ncccn2)nc1OCCOc1ncc(Br)cn1 [Example 156]
680,96,"COc1ccccc1Oc1c(NS(=O)(=O)Nc2ccc(C(C)C)cc2)nc(-c2ccncc2)nc1OCCOc1ncccn1 [Example 4, 4-i-propyl-phenyl sulfamic acid-[6-[2-(pyrimidin-2-yloxy)-ethoxy]-5-(o-methoxyphenoxy)-2-(4-pyridyl)-pyrimidin-4-yl]-amide]"
193,2870,"COc1ccccc1Oc1c(NS(=O)(=O)Nc2ccc(C(C)(C)C)cc2)nc(-c2ccncc2)nc1OCCO [Example 10, 4-t-butyl-phenyl sulfamic acid-[6-(2-hydroxy-ethoxy)-5-(o-methoxy-phenoxy)-2-(4-pyridyl)-4-pyrimidinyl]-amide]"
35,3.1,COc1cnc(OCCOc2nc(-c3ncccn3)nc(NS(=O)(=O)NCc3ccc(F)cc3)c2Oc2ccccc2OC)nc1 [Example 143]
102,7.3,COc1cnc(OCCOc2nc(-c3ccncc3)nc(NS(=O)(=O)NCC3CC3)c2Oc2ccccc2OC)nc1 [Example 124]
514,5,COc1cnc(OCCOc2ncnc(NS(=O)(=O)NCc3ccc4c(c3)OCO4)c2-c2ccc(C)cc2)nc1 [Example 146]

# — patent publication US7094781B2, “Sulfamides and their use as endothelin receptor antagonists” (Actelion Pharmaceuticals Ltd., priority 2000, dated 2006)
